Values after ≈ are worked out from the molar mass of the structure shown.
Tests used:
A/W SN/33 BVLV09 (H1N1) = assay: Plaque reduction assay (PRA) in MDCK cells; format: cell-based, influenza A (H1N1); details: reduces plaque numbers by 50%
[1] = test system: A/New Caledonia/20/99 BVLV008 (H1N1); assay: Plaque reduction assay (PRA) in MDCK cells; format: cell-based; details: reduces plaque numbers by 50%
B/Harbin/7/95 BVLV008 = assay: Plaque reduction assay (PRA) in MDCK cells; format: cell-based; details: Influenza B virus, read-out: EC50 PRA B/Harb*
[2] = test system: A/Panama/2007/99 BVLV008 (H3N2); assay: Plaque reduction assay (PRA) in MDCK cells; format: cell-based; details: reduces plaque numbers by 50%
Influenza A/Sydney/5/97 = assay: Cytopathic effect (CPE) assay in MDCK cells, MTT readout; format: cell-based; details: concentration that inhibited CPE by 50%, up to 72 hours
[3] = test system: B/Yamaneshl/166/98 BVLV007; assay: Plaque reduction assay (PRA) in MDCK cells; format: cell-based; details: Influenza B virus, read-out: EC50 PRA B/Yam*, reduces plaque numbers by 50%, MDCK cells

Structure (SMILES)	EC50 PRA A/W SN* (A/W SN/33 BVLV09 (H1N1)) [µg/mL]	EC50 PRA A/New* [1] [µg/mL]	EC50 (B/Harbin/7/95 BVLV008) [µg/mL]	EC50 PRA A/Pan* [2] [µg/mL]	ID50 A/Sydney/5/97+ (Influenza A/Sydney/5/97) [µg/mL]	EC50 [3] [µg/mL]
CC(=O)N[C@@H]1C(N=C(N)N)C=C(C(=O)O)O[C@H]1[C@H](O)[C@H](O)CO (single isomer, unassigned) [Compound A, 4-guanidino-2-deoxy-2,3-dehydro-N-acetylneuraminic acid]	> 0.1	0.00023 (≈ 0.000692 µM)	0.00019 (≈ 0.000572 µM)	0.003 (≈ 0.00903 µM)	0.023 ± 0.024 (≈ 0.0692 µM)	–
NC12CC3CC(CC(C3)C1)C2 [Amantadine]	–	–	–	–	–	2.08 (≈ 13.8 µM)
